In patent publication US20240083853A1, “HSD17B13 INHIBITORS AND USES THEREOF” (FL2022-001, Inc., priority 2020, published 2024):

Target: T1, Recombinant human HSD17B13 enzyme (Homo sapiens, UniProt Q7Z5P4)
T1 sequence (Q7Z5P4 20-300): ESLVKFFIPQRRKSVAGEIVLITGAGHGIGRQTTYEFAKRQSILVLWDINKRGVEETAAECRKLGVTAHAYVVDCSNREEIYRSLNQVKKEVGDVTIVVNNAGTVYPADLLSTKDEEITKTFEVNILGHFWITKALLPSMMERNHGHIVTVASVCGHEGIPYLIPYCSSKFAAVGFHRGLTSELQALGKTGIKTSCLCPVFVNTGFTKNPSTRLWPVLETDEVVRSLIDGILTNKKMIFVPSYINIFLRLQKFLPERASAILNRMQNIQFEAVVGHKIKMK
Assay: HSD17b13 NAD(P)H-Glo biochemical assay
Settings: 50 uM estradiol, 1 mM NAD+, NAD(P)H-Glo luminescence; read-out: HSD17β13 IC50
Method in brief: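 Luminescent NAD(P)H-Glo read-out, taken after 1 hour at RT, measured cofactor reduction. Substrate and cofactor were estradiol at 50 uM and NAD+ at 1 mM final, reacted with the recombinant human enzyme for 3 hours at 37° C in 20 mM Tris pH7.4, 0.002% Tween-20, 0.02% BSA. Compound was pre-incubated with enzyme for 20 minutes at RT.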

IC50	SMILES
100 to 1000 nM	CC1(C)CN(S(C)(=O)=O)CCN1c1ccc(-n2ncc3cc(F)c(O)c(F)c32)cc1 [Compound 23.6, 1-(4-(2,2-Dimethyl-4-(methylsulfonyl)piperazin-1-yl)phenyl)-5,7-difluoro-1H-indazol-6-ol]
100 to 1000 nM	Oc1c(F)cc2nnn(-c3ncc(N4CC5(CCOCC5)C4)cn3)c2c1F [Compound 26.21, 1-(5-(7-Oxa-2-azaspiro[3.5]nonan-2-yl)pyrimidin-2-yl)-5,7-difluoro-1H-benzo[d][1,2,3]triazol-6-ol]
100 to 1000 nM	Oc1c(F)cc2cnn(-c3ccc(N4CC5CC(C4)O5)cc3)c2c1F [Compound 23.16, 1-(4-(6-Oxa-3-azabicyclo[3.1.1]heptan-3-yl)phenyl)-5,7-difluoro-1H-indazol-6-ol]
< 100 nM	CC(C)C1(C)CCN(c2ccc(-n3ncc4cc(F)c(O)c(F)c43)cc2)CC1 [Compound 24.6, 5,7-Difluoro-1-(4-(4-isopropyl-4-methylpiperidin-1-yl)phenyl)-1H-indazol-6-ol]
< 100 nM	CC1(C)CCN(c2cnc(-n3ncc4cc(F)c(O)c(F)c43)cn2)CC1 [Compound 26.6, 1-(5-(4,4-Dimethylpiperidin-1-yl)pyrazin-2-yl)-5,7-difluoro-1H-indazol-6-ol]
< 100 nM	C[C@@H]1CN(c2ccc(-n3ncc4cc(F)c(O)c(F)c43)cc2)C[C@@H](C)O1 [Compound 24.10, 1-(4-((2R,6R)-2,6-Dimethylmorpholino)phenyl)-5,7-difluoro-1H-indazol-6-ol]
100 to 1000 nM	O=S1(=O)CCC2(CC1)CN(c1ccc(-n3ncc4cc(F)c(O)c(F)c43)cc1)C2 [Compound 24.11, 2-(4-(5,7-Difluoro-6-hydroxy-1H-indazol-1-yl)phenyl)-7-thia-2-azaspiro[3.5]nonane 7,7-dioxide]
< 100 nM	CS(=O)(=O)N1CC=C(c2ccc(-n3ncc4cc(F)c(O)c(F)c43)cc2)CC1 [Compound 27.4, 5,7-Difluoro-1-(4-(1-(methylsulfonyl)-1,2,3,6-tetrahydropyridin-4-yl)phenyl)-1H-indazol-6-ol]
< 100 nM	C[C@H]1CN(c2ccc(-n3ncc4cc(F)c(O)c(F)c43)cc2)C[C@H](C)O1 [Compound 24.9, 1-(4-((2S,6S)-2,6-Dimethylmorpholino)phenyl)-5,7-difluoro-1H-indazol-6-ol]
100 to 1000 nM	Oc1c(F)cc2cnn(-c3ccc(N4CCOCC4)cc3)c2c1F [Compound 23.3, 5,7-Difluoro-1-(4-morpholinophenyl)-1H-indazol-6-ol]
100 to 1000 nM	CS(=O)(=O)N1CCN(c2cnc(-n3nnc4cc(F)c(O)c(F)c43)cn2)CC1 [Compound 26.19, 5,7-Difluoro-1-(5-(4-(methylsulfonyl)piperazin-1-yl)pyrazin-2-yl)-1H-benzo[d][1,2,3]triazol-6-ol]
100 to 1000 nM	CS(=O)(=O)N1CCN(c2ccc(-n3nnc4cc(F)c(O)c(F)c43)cn2)CC1 [Compound 26.13, 5,7-Difluoro-1-(6-(4-(methylsulfonyl)piperazin-1-yl)pyridin-3-yl)-1H-benzo[d][1,2,3]triazol-6-ol]
< 100 nM	C[C@@H]1CN(c2ccc(-n3ncc4cc(F)c(O)c(F)c43)cc2)C[C@H](C)S1 [Compound 32.4, 1-(4-(cis-2,6-Dimethylthiomorpholino)phenyl)-5,7-difluoro-1H-indazol-6-ol]

More lines, now with the values behind:

SMILES	IC50
CS(=O)(=O)C1CN(c2ccc(-n3nnc4cc(F)c(O)c(F)c43)cc2)C1 [Compound 20.14, 5,7-Difluoro-1-(4-(3-(methylsulfonyl)azetidin-1-yl)phenyl)-1H-benzo[d][1,2,3]triazol-6-ol]	100 to 1000 nM
Oc1cc2c(cnn2-c2ccc(-c3ccc(Cl)cc3)cc2)cc1F [Compound 13.8, 1-(4′-Chloro-[1,1′-biphenyl]-4-yl)-5-fluoro-1H-indazol-6-ol]	100 to 1000 nM
CS(=O)(=O)N1CCN(c2ccc(-n3ncc4cc(F)c(O)c(F)c43)c(F)c2)CC1 [Compound 20.8, 5,7-Difluoro-1-(2-fluoro-4-(4-(methylsulfonyl)piperazin-1-yl)phenyl)-1H-indazol-6-ol]	< 100 nM
CC1(C)CCN(c2ccc(-n3c(Cl)nc4cc(F)c(O)c(F)c43)cc2)CC1 [Compound 21.9, 2-Chloro-1-(4-(4,4-dimethylpiperidin-1-yl)phenyl)-5,7-difluoro-1H-benzo[d]imidazol-6-ol]	100 to 1000 nM
C[C@@H]1CN(c2ccc(-n3ncc4cc(F)c(O)c(F)c43)cc2)C[C@H](C)O1 [Compound 20.7, 1-(4-(cis-2,6-Dimethylmorpholino)phenyl)-5,7-difluoro-1H-indazol-6-ol]	< 100 nM
Cc1c(F)c(O)cc2c1cnn2-c1ccc(-c2cccc(O)c2)cc1 [Compound 4.2, 5-Fluoro-1-(3′-hydroxy-[1,1′-biphenyl]-4-yl)-4-methyl-1H-indazol-6-ol]	100 to 1000 nM
CC1(C)COCCN1c1ccc(-n2ncc3cc(F)c(O)c(F)c32)cc1 [Compound 20.6, 1-(4-(3,3-Dimethylmorpholino)phenyl)-5,7-difluoro-1H-indazol-6-ol]	100 to 1000 nM
CC1(CO)CN(c2ccc(-n3ncc4cc(F)c(O)c(F)c43)cc2)C1 [Compound 20.16, 5,7-Difluoro-1-(4-(3-(hydroxymethyl)-3-methylazetidin-1-yl)phenyl)-1H-indazol-6-ol]	100 to 1000 nM
Oc1cc2c(cnn2-c2ccc(-c3ccccc3)cc2)cc1F [Compound 2.2, 1-([1,1′-Biphenyl]-4-yl)-5-fluoro-1H-indazol-6-ol]	100 to 1000 nM
CS(=O)(=O)C1CN(c2ccc(-n3cnc4cc(F)c(O)c(F)c43)cc2)C1 [Compound 20.15, 5,7-Difluoro-1-(4-(3-(methylsulfonyl)azetidin-1-yl)phenyl)-1H-benzo[d]imidazol-6-ol]	1000 to 30000 nM
Nc1ccc(-c2ccc(-n3ncc4cc(F)c(O)cc43)cc2)cc1 [Compound 13.28, 1-(4′-Amino-[1,1′-biphenyl]-4-yl)-5-fluoro-1H-indazol-6-ol]	100 to 1000 nM
CS(=O)(=O)N1CCN(c2ncc(-n3ncc4cc(F)c(O)c(F)c43)cn2)CC1 [Compound 7, 5,7-Difluoro-1-(2-(4-(methylsulfonyl)piperazin-1-yl)pyrimidin-5-yl)-1H-indazol-6-ol]	100 to 1000 nM
CS(=O)(=O)N1CCN(c2ccc(-n3ncc4cc(F)c(O)c(F)c43)cc2Cl)CC1 [Compound 19.1, 1-(3-Chloro-4-(4-(methylsulfonyl)piperazin-1-yl)phenyl)-5,7-difluoro-1H-indazol-6-ol]	< 100 nM
